Here are results for 1 compound from patent publication US12286439B2, “Inhibitors of ERK nuclear translocation” (Yeda Research and Development Co. Ltd., priority 2018, dated 2025).

Experiment [1] has as its system A2185, A2352, HeLa and MCF7 cells. Nature of the experiment: Viability assay (methylene blue), four cancer lines. As to conditions: 72 hours, 1% FCS, in 3 or 4 cell lines, read-out: reduction of cell viability. It counts as cell-based. As to the method:
Four cancer cells, A2185, A2352, HeLa and MCF7 were grown in 1% FCS containing 10 μM of either EPE peptide, or Compounds Z56, Z1, Z2 or Z3, for 72 hours. Bars indicate average of 2 independent experiments done in triplicate ±SE. FIG. 8B presents dose response curves for Compounds Z56, Z1 and Z2. A2185 cells were grown in 1% FCS containing DMSO (0.1%) EPE or Scramble (Scr) peptide (10 μM), Compounds Z56, Z1, Z2, Z3 ([…]) or no treatment (FCS 1%) for 72 hours. Empty squares represent individual data points of proliferation. Full squares indicate average proliferation of 2 independent experiments done in triplicate ±SE. Bold horizontal line indicates arbitrary threshold (40%) for what is considered an active compound. Cell viability (as shown in FIGS. 8A and 8B) was measured by staining with methylene blue, and data presents proliferation normalized to DMSO control. […] Cell lysates were analyzed by Western blot with the corresponding antibodies. […]
Cells were seeded at low confluence into 24, 48 or 96-well plates in complete medium. […] Color was extracted by adding 0.1 M HCl (3 hours, 23° C.), and absorbance measured at 595 nm in an ELISA reader. For time course experiments, attached cells were fixed and measured at 0, 24, 48, 72 and 96 hours. […]

The test system of the next experiment is A2185 and A2352 cells. Nature of the experiment: Viability assay (methylene blue), two BRAF melanoma cells. It counts as cell-based. The note with it: 3 μM, 72 hours, 1% FCS. On the procedure:
FIGS. 10A, 10B and 10C present data from screening the 20 analogs of Compound Z2 (“C-compounds”) showing three particularly active anti-proliferative compounds. […] A2185 and A2352 cells were grown in 1% FCS containing DMSO (0.1%), EPE peptide, Compound Z56, Compound Z2 or C-compounds (10 μM), for 72 hours. Compounds were categorized according to activity: (1) active, below 40%; (2) moderate activity, below 80%; (3) not active, above 80%. […] A2185 and A2352 cells were grown in 1% FCS containing DMSO (0.1%), EPE peptide (10 μM), compounds Z56, Z2 or selected C-compounds (3 μM), for 72 hours. Empty squares/circles represent individual data points of proliferation. Full squares/circles indicate average proliferation of 2 independent experiments in triplicate±SE. Bold horizontal line defines arbitrary activity threshold of activity below 40%. FIG. 10C presents dose response curves of active C-compounds compounds. A2185 and A2352 were grown in 1% FCS media containing DMSO (0.1%), EPE peptide, Z56, Z2 (10 μM) or compounds C17, C22 and C23 (0.1-10 μM), for 72 hours. […] Cell viability was measured by staining with methylene blue. Data presented as percentage of DMSO control. Bar graphs represent average of 2 independent experiments done in triplicates ±SE.
FIG. 13 presents a graph showing the effect of analogs of Compound C17 (“D-compounds”) on cell viability at a concentration of 10 μM. A2185 and A2352 cells were grown in 1% FCS media containing DMSO (0.1%) EPE peptide (10 μM), Compounds Z56, Z2, C17 (10 μM) as controls, and D-Compounds (10 μM), for 72 hours. Viable cells were measured by staining with methylene blue. Bar graphs represent average of 2 independent experiments done in triplicates. Data presented as percentage of DMSO proliferation ±standard error.
FIG. 14 presents a graph showing the effect of analogs of Compound C17 (“D-compounds”) on cell viability at a concentration of 1 μM. A2185 and A2352 cells were grown in 1% FCS media containing DMSO (0.1%), EPE peptide (10 μM), Compounds Z56, Z2 and C17 (1 and 10 μM) as controls, and D-compounds (1 μM), for 72 hours. Viable cells were measured by staining with methylene blue. Bar graphs represent average of 2 independent experiments done in triplicates. Data presented as percentage of DMSO proliferation ±standard error.
Cells were seeded at low confluence into 24, 48 or 96-well plates in complete medium. After 24 hours, medium was replaced by 1% FCS (fetal calf serum) containing appropriate treatments. Fresh medium containing the same agents was replaced every day. After 72 or 96 hours of treatment, cells were fixed with 4% formaldehyde overnight at 23° C., washed once with 0.1 M borate buffer (pH 8.5) for 10 minutes, and stained with of 1% methylene blue in 0.1 M borate buffer (pH 8.5) for 30 minutes. Excess stain was washed out with distilled water. Color was extracted by adding 0.1 M HCl (3 hours, 23° C.), and absorbance measured at 595 nm in an ELISA reader. For time course experiments, attached cells were fixed and measured at 0, 24, 48, 72 and 96 hours. For dose-response experiments, cells were treated with indicated concentrations of reagent, fixed and stained after 72 hours as above.
The ability of the selected compounds to reduce cell viability of two BRAF melanoma cells (A2185 and A2352) was evaluated. Initially, all compounds were assayed at a relatively high concentration of 10 μM.

For `O=C(OC1C=CS(=O)(=O)C1)c1ccccc1` (centres unmarked) [Compound Z2], the cytotoxicity at 10 µM in experiment [1] is roughly 60%. Besides, the “cell viability at lower concentration” value with A2185 and A2352 cells is “variable activity”.
